Data as given in US20150098969A1, “ALTERNARIA PEPTIDES” (priority 2012, published 2015).
Where no end group is shown, it is not given here. [ ]: non-standard residue; d: D form. pGlu = O=C1CC[C@@H](C(=O)O)N1; Nle = CCCC[C@H](N)C(=O)O

system: Peripheral blood mononuclear cells (PBMCs); test: Cytokine release assay (multiplex bead assay IL-10, IL-13, IFN-g) and analysis of population coverage; type: cell-based, human; conditions: cytokine release greater than 50 pg/ml in one or more of IL-13, IL-10, IFN-g; 50 mould allergic subjects; 100 μg/ml; 5 days
Description: Polypeptides for use in this assay were manufactured at small scale (approximately 10 mg batch size, non-GMP). […] Polypeptides were added to wells in a volume of 100 μl containing polypeptides at a concentration of […], such that subsequent addition of 100 μl of cells would create a final assay concentration of 100 μg/ml.
Peripheral blood mononuclear cells (PBMCs) were isolated from heparinised blood by Ficoll density gradient centrifugation. […] Following stimulation, culture supernatants (100 μl) were harvested for testing by multiplex bead assay.
Multiplex cytokine bead assays (IL-10, IL-13, Interferon gamma (IFN-g)) were performed on thawed culture supernatants according to the manufacturer's instructions. Single measurements were performed for each culture supernatant sample. After completion of the multiplex assay, individual cytokine levels were determined by interpolation from the standard curve generated in the assay. A positive result was taken as a cytokine release of greater than 50 pg/ml in one or more of the IL-13, IL-10 and IFN-g assays. The number of responders out of 50 mould allergic subjects tested was calculated for each polypeptide for the three cytokines.
An analysis of population coverage was carried out to determine what polypeptides could advantageously capture additional responses from the population when included in combination with other peptides. The number of subjects in the population displaying IL-13 or IFN-g responses to at least one, two or three polypeptides included in a given combination was analysed.
An analysis of population coverage was then carried out for additional combinations of polypeptides identified as having preferable pharmaceutical development characteristics. The number of subjects in the population displaying IL-13 or IFN-g responses to at least one, two or three polypeptides included in a given combination was analysed.

Going from WSWKIGPAIATGNT [Alt28] to “KLWHS-Nle-IP-Nle-GRDAK (KLWHS[Nle]IP[Nle]GRDAK) [Alt24A]”, the “% responders” value falls from 52% to 40%.

First: YEKYRRVVRAGVKV [Alt34]
Second: KKYAGVFVSTGTLGGGK [Alt18]
The “% responders” value of the first is lower: 38% for the first, 50% for the second.

First: KQLLMLSAKRMKVAFK [Alt05]
Second: KYRRVVRAGVKVAQTAR [Alt34A]
The “% responders” value of the first is lower: 2% for the first, 38% for the second.

Compared with TLYRPRDLLSLLNE [Alt08], “PyrKLKALAKKTYGQ ([pGlu]KLKALAKKTYGQ) [Alt13]” is higher in “% responders” value: 10% for the first, 40% for the second.

Compared with SYNVAKAGSIHLAK [Alt22A], KLWHSMIPMGRDAK [Alt24] is lower in “% responders” value: 44% for the first, 34% for the second.

Compared with TYYNSLGFNIKATNGGTL [Alt01], AEVYQKLKALAKKTYGQ [Alt13A] is higher in “% responders” value: 20% for the first, 86% for the second.

Compared with IFRSLSKEDPDY [Alt04], GLHFRERKTGSLVIT [Alt21] is higher in “% responders” value: 6% for the first, 38% for the second.

Going from KLFQVAETLPQEVLDK [Alt17] to KRSLLVFAVRSS-Nle-ELRK [Alt27A], the “% responders” value rises from 30% to 42%.

Going from “KLWHSMIP-Nle-GRDAK (KLWHSMIP[Nle]GRDAK) [Alt24C]” to “KKVS-Nle-AIAKAAAAEK (KKVS[Nle]AIAKAAAAEK) [Alt11A]”, the “% responders” value rises from 36% to 44%.

Going from KQLLMLSAKR-Nle-KVAFK [Alt05C] to KYWLYFYKLHPEK [Alt32], the “% responders” value rises from 16% to 36%.

Going from KEYQKIFPSIQVI [Alt09] to HEIYVVDRVSAP [Alt30], the “% responders” value rises from 6% to 36%.

First: GYTGKIKIA-Nle-DVASSE (GYTGKIKIA[Nle]DVASSE) [Alt15A]
Second: IEKLRSNITVQYDI [Alt33]
The “% responders” value of the first is lower: 42% for the first, 44% for the second.

First: KDAYITLVTLPKSS [Alt03]
Second: SAFRSIEPELTVY [Alt10]
The “% responders” value of the first is lower: 22% for the first, 42% for the second.

First: GWGV-Nle-VSHRSGET (GWGV[Nle]VSHRSGET) [Alt14A]
Second: KDITYVATATLPNY [Alt02]
The “% responders” value of the first is higher: 56% for the first, 36% for the second.

“SAKR-Nle-KVAFKLDIEK (SAKR[Nle]KVAFKLDIEK) [Alt06A]” and LQFTLYRPRDLLS [Alt07] are the same in “% responders” value: 10% for the first, 10% for the second.

Going from NEWRDFARVNSISP [Alt23] to “KQLL-Nle-LSAKRMKVAFK (KQLL[Nle]LSAKRMKVAFK) [Alt05B]”, the “% responders” value falls from 40% to 12%.

First: KKDAYITLVTLPKSS [Alt03A]
Second: NWLTLHTAALGPTAK [Alt31]
The “% responders” value of the first is lower: 16% for the first, 58% for the second.

Going from SYNVAKAGCIHLAK [Alt22] to GWGVMVSHRSGET [Alt14], the “% responders” value falls from 46% to 44%.

Going from “KQLL-Nle-LSAKR-Nle-KVAFK (KQLL[Nle]LSAKR[Nle]KVAFK) [Alt05A]” to DITYVATATLPNYSR [Alt02A], the “% responders” value rises from 10% to 30%.

First: KSAFRSIEPELTVYK [Alt10A]
Second: AEVYQKLKALAKK [Alt12]
The “% responders” value of the first is lower: 34% for the first, 38% for the second.

Going from SAKRMKVAFKLDIEK [Alt06] to GYTGKIKIAMDVASSE [Alt15], the “% responders” value rises from 16% to 56%.

Compared with SLGFNIKATNGGTLD [Alt01A], IFRSLSKEEPDY [Alt04A] is lower in “% responders” value: 26% for the first, 4% for the second.

Going from KKVSMAIAKAAAAEK [Alt11] to KTYVATATLPNY [Alt02B], the “% responders” value falls from 36% to 22%.

Compared with KRSLLVFAVRSSMELRK [Alt27], LAITYNSRAEGAEK [Alt20] is lower in “% responders” value: 40% for the first, 38% for the second.

same assay, conditions: responders out of 50 individuals

With AEVYQKLKALAKKTYGQ [Alt13A] the “individuals showing a response” value was 34/50.
